In publication PMC11167047 (Cell Death Discovery, 2024):

Experiments:
Experiment in all cases: kinome screen (33PanQinase)
Assay type in all cases: biochemical
CDK4/CycD2 = biological target: T1, CDK4/CycD2 (Homo sapiens, UniProt P11802)
T1 construct: purchased Reaction Biology Europe GmbH (formerly ProQinase)
Protocol: (§1) The Kinome Screening was performed by Reaction Biology Europe GmbH (http://reactionbiology.com; Freiburg i. Br., Germany).

CDK5/p35NCK = biological target: T2, CDK5/p35NCK (Homo sapiens, UniProt Q00535)
T2 construct: purchased Reaction Biology Europe GmbH (formerly ProQinase)
T2 sequence (Q00535 whole entry): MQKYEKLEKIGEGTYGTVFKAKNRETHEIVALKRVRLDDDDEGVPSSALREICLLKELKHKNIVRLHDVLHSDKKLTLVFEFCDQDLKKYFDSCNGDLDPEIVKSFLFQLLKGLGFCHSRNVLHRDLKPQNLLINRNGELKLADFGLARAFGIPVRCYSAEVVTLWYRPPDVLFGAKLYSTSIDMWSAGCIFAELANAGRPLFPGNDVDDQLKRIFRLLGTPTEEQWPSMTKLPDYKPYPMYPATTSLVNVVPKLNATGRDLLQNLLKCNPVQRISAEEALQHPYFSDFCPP
T2 sequence (Q15078 whole entry partner): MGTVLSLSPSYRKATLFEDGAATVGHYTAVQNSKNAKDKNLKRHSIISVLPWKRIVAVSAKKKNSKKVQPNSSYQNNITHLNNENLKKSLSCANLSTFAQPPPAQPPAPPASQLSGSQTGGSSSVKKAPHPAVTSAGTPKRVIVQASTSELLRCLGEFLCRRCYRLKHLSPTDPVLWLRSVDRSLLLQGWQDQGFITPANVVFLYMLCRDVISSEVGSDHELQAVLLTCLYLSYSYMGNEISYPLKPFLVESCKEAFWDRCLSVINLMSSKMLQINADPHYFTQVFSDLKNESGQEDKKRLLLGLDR
Protocol: as §1

EIF2AK3 = biological target: T3, EIF2AK3 (Homo sapiens, UniProt Q9NZJ5)
T3 construct: purchased Reaction Biology Europe GmbH (formerly ProQinase)
T3 sequence (Q9NZJ5 30-1116): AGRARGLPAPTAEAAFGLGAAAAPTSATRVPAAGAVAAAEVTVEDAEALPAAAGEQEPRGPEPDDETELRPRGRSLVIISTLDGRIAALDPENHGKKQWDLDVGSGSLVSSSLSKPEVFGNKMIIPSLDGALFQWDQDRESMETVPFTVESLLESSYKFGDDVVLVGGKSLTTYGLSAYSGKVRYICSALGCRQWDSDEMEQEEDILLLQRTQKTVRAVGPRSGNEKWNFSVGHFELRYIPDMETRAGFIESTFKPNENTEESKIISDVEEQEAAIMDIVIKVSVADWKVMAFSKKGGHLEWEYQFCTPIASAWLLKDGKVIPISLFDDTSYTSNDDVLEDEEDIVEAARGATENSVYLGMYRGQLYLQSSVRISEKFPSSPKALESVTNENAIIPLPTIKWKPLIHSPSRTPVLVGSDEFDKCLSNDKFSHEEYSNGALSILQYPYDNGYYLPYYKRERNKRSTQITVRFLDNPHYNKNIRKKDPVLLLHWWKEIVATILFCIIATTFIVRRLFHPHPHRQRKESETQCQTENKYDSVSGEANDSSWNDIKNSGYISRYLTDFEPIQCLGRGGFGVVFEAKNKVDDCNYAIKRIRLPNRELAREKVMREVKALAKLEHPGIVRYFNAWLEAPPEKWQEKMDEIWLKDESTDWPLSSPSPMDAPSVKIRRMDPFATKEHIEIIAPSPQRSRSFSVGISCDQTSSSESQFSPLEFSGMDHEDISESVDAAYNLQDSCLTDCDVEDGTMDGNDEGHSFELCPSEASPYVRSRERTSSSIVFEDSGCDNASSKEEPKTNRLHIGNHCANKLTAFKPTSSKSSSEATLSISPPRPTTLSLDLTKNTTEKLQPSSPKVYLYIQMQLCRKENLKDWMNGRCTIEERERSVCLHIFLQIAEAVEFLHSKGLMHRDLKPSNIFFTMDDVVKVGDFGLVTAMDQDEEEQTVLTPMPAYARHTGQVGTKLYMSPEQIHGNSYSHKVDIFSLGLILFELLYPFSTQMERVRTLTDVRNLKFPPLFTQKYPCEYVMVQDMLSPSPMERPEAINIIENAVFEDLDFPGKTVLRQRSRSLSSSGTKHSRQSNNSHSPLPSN
Protocol: as §1

GRK6 = biological target: T4, GRK6 (Homo sapiens, UniProt P43250)
T4 construct: purchased Reaction Biology Europe GmbH (formerly ProQinase)
T4 sequence (P43250 whole entry): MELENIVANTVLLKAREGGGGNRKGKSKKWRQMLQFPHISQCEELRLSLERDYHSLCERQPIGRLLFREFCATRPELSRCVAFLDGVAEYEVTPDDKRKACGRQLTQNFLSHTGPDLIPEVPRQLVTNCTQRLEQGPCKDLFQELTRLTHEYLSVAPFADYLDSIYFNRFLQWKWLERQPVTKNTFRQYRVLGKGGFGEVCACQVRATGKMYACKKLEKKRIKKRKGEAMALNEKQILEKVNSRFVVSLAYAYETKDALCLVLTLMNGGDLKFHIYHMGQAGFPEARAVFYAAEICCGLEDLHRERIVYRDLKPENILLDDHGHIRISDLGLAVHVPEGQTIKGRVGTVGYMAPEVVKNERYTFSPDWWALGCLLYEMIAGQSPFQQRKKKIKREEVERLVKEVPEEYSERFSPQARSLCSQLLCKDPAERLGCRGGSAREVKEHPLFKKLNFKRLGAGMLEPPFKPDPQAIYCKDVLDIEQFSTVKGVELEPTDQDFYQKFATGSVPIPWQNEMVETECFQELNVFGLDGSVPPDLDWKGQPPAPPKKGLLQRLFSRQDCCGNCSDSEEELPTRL
Protocol: as §1

MAPKAPK2 = biological target: T5, MAPKAPK2 (Homo sapiens, UniProt P49137)
T5 construct: purchased Reaction Biology Europe GmbH (formerly ProQinase)
T5 sequence (P49137 whole entry): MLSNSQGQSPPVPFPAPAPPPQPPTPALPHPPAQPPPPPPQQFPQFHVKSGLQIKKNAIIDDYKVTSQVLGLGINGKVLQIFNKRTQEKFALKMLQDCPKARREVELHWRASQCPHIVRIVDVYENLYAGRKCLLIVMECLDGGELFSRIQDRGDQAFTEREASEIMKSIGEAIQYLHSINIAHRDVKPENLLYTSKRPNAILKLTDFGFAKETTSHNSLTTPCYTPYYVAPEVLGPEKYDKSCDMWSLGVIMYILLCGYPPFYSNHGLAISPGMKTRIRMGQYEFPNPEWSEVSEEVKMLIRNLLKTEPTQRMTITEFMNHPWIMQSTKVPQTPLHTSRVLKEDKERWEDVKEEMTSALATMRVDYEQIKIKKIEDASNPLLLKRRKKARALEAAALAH
Protocol: as §1

RPS6KA1 = biological target: T6, RPS6KA1 (Homo sapiens, UniProt Q15418)
T6 construct: purchased Reaction Biology Europe GmbH (formerly ProQinase)
T6 sequence (Q15418 whole entry): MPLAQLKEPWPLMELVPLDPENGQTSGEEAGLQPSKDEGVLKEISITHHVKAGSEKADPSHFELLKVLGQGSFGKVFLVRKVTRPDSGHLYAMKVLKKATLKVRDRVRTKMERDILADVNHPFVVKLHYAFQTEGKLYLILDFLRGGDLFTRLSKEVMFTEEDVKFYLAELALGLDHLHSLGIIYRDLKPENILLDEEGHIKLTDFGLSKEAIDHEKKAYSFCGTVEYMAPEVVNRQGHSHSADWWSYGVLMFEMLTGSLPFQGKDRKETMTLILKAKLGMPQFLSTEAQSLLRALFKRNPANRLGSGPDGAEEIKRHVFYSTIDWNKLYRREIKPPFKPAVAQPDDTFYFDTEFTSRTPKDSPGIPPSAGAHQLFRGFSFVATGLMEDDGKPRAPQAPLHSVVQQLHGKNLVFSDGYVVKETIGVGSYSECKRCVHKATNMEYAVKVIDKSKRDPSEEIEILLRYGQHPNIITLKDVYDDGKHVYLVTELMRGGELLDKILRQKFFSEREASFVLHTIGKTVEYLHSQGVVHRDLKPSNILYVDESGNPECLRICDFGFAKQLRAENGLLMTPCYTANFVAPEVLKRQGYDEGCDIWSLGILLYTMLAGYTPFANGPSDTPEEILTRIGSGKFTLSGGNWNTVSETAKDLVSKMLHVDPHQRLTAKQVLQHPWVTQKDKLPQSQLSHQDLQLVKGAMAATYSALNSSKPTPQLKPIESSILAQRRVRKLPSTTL
Protocol: as §1

TLK1 = biological target: T7, TLK1 (Homo sapiens, UniProt Q9UKI8)
T7 construct: purchased Reaction Biology Europe GmbH (formerly ProQinase)
T7 sequence (Q9UKI8 1-766): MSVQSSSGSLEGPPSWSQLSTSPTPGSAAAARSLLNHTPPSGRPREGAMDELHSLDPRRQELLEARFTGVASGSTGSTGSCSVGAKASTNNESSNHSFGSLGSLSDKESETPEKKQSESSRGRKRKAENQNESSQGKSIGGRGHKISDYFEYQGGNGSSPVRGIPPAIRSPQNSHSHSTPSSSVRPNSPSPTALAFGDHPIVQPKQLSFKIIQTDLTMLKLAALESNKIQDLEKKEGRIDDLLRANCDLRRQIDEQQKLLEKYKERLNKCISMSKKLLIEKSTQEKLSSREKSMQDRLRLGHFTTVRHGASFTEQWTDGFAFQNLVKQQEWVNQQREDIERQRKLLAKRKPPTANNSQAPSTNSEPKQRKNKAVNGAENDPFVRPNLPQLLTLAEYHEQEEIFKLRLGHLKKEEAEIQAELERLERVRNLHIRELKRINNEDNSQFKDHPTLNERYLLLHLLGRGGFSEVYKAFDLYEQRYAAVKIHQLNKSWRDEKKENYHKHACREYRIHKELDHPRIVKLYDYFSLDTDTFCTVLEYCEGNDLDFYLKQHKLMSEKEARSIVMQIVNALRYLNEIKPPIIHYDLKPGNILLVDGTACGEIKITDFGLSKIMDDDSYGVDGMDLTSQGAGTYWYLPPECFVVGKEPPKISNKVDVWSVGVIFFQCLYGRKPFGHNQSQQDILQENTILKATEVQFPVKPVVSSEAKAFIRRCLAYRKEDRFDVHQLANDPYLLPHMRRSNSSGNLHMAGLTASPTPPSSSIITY
Protocol: as §1

T1 sequence (P11802 whole entry): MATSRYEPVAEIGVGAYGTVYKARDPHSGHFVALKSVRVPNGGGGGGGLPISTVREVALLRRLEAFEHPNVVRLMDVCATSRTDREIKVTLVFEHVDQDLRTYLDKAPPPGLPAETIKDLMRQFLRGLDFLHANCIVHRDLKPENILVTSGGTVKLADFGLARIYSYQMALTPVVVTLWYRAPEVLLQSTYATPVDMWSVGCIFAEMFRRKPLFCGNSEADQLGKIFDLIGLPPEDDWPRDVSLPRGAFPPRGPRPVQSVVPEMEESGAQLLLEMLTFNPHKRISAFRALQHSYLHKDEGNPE
T1 sequence (P30279 whole entry partner): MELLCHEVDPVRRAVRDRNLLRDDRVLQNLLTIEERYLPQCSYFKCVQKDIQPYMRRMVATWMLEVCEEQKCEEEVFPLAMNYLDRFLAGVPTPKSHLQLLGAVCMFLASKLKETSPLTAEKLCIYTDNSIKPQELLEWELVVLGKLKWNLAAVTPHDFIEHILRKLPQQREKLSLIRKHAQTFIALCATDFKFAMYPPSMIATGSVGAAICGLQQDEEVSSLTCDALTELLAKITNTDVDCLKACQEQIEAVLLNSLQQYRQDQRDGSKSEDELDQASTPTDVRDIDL

## COc1ccnc2[nH]cc(-c3cc(N)nc(N)c3)c12 [meriolin 16]
CDK4/CycD2; 0.03 µM
  residual kinase activity: 81 % of control
CDK4/CycD2; 0.3 µM
  residual kinase activity: 34 % of control
CDK5/p35NCK; 0.03 µM
  residual kinase activity: 7 % of control
CDK5/p35NCK; 0.3 µM
  residual kinase activity: 1 % of control
EIF2AK3; 0.03 µM
  residual kinase activity: 87 % of control
EIF2AK3; 0.3 µM
  residual kinase activity: 90 % of control
GRK6; 0.03 µM
  residual kinase activity: 98 % of control
GRK6; 0.3 µM
  residual kinase activity: 93 % of control
MAPKAPK2; 0.3 µM
  residual kinase activity: 95 % of control
RPS6KA1; 0.03 µM
  residual kinase activity: 46 % of control
RPS6KA1; 0.3 µM
  residual kinase activity: 22 % of control
TLK1; 0.03 µM
  residual kinase activity: 98 % of control
TLK1; 0.3 µM
  residual kinase activity: 89 % of control

## c1ccc(CNc2cc(-c3c[nH]c4ncccc34)ccn2)cc1 [meriolin 36]
CDK4/CycD2; 0.3 µM
  residual kinase activity: 21 % of control
CDK4/CycD2; 3 µM
  residual kinase activity: 3 % of control
CDK5/p35NCK; 0.3 µM
  residual kinase activity: 0 % of control
CDK5/p35NCK; 3 µM
  residual kinase activity: 0 % of control
EIF2AK3; 0.3 µM
  residual kinase activity: 81 % of control
EIF2AK3; 3 µM
  residual kinase activity: 74 % of control
GRK6; 0.3 µM
  residual kinase activity: 96 % of control
GRK6; 3 µM
  residual kinase activity: 54 % of control
MAPKAPK2; 0.3 µM
  residual kinase activity: 130 % of control
MAPKAPK2; 3 µM
  residual kinase activity: 87 % of control
RPS6KA1; 0.3 µM
  residual kinase activity: 20 % of control
RPS6KA1; 3 µM
  residual kinase activity: 10 % of control
TLK1; 0.3 µM
  residual kinase activity: 119 % of control
TLK1; 3 µM
  residual kinase activity: 106 % of control
